Source: patent US10087416B2, “Culturing pluripotent stem cells” (Agency for Science, Technology and Research, priority 2013, dated 2018)

Columns and labels:
Assay type in all cases: cell-based, human
hESCs = test: Small molecule treatment of hESCs, expression of pluripotency and lineage markers (qPCR); conditions: for Gene expression levels of pluripotency markers NANOG and POU5F1: hESCs treated with individual chemicals for 4 days, FIG. 1C; for Expression level of lineage markers / Expression of NANOG and POU5F1: individual chemicals of combination 22, subcultured onto feeders, harvested after 4 days, FIG. 1F
Procedure: For routine culture of hESCs in TeSR1 (Stem cell technologies), cells were cultured feeder free on matrigel (BD). Cell media was changed daily. The hESCs were subcultured with 1 mg/ml Dispase (Stem cell technologies) every 5-7 days. 3iL hESCs culture medium contains 1 μM of PD0325901 (Sigma), 2 μM of BIO (Sigma), 2 μM of Dorsomorphin (Sigma) and 10 ng/ml human LIF (Millipore) in TeSR1. 3iL media are prepared fresh and stored at 4° C. for not more than 2 weeks. For treatment with 3iL conditions, hESCs cultured in TeSR1 was treated with 3iL 48 hrs post-seeding. The cells are subsequently subcultured on mitomycin C inactivated mouse fibroblast. Cells are dissociated to single cells using TrypLE (Life Technologies). 3iL medium is refreshed daily and cells are subcultured upon confluency. ROCK inhibitor Thiazovivin is added at a final concentration of 1 μM to enhance cell survival for the first few passages. 3iL hESCs used in all the experiments have been cultured for at least 10 passages for adequate conditioning to the new culture condition.
hESCs were dissociated with dispase and treatment starts 48 hrs post seeding. For single chemical and combinatorial chemical treatment, the small molecules are used at the following final concentrations: 0.5 μM A83-01 (Stemgent), 2 μM BIO (Sigma), 3 μM CHIR99021 (Stemgent), 2 μM Dorsomorphin (Sigma), 8 μM Forskolin (Stemgent), 2 μM IDE-1 (Stemgent), 0.5 μM PD153035 (Sigma), 1 μM PD173074 (Sigma), 1 μM PD0325901 (Sigma), 5 μM Pifithrin-α (Sigma) and 1 μM RepSox (Sigma). All small molecules are reconstituted in DMSO. For PI3K pathway inhibition, LY294002 (Sigma) was used at final concentration of 10 μM.

3iL hESCs = test: Signaling pathway inhibitor treatment of 3iL hESCs (pluripotency markers, colony numbers); conditions: treated for 10 days, compared to 3iL hESC control, FIG. 4B
Procedure: The hESC line H1 (WA-01, passage 28) was used for this study. For routine culture of hESCs in TeSR1 (Stem cell technologies), cells were cultured feeder free on matrigel (BD). Cell media was changed daily. The hESCs were subcultured with 1 mg/ml Dispase (Stem cell technologies) every 5-7 days. 3iL hESCs culture medium contains 1 μM of PD0325901 (Sigma), 2 μM of BIO (Sigma), 2 μM of Dorsomorphin (Sigma) and 10 ng/ml human LIF (Millipore) in TeSR1. 3iL media are prepared fresh and stored at 4° C. for not more than 2 weeks. For treatment with 3iL conditions, hESCs cultured in TeSR1 was treated with 3iL 48 hrs post-seeding. The cells are subsequently subcultured on mitomycin C inactivated mouse fibroblast. Cells are dissociated to single cells using TrypLE (Life Technologies). […]
For expression analysis, total RNA was extracted using the TRIzol reagent (Invitrogen) with chloroform and precipitated with isopropanol. […] RNA concentration was determined with the NanoDrop 2000 (Thermo Scientific). 500 ng of RNA was used for each reverse transcription reaction using the SuperScript II Kit (Invitrogen) to produce the cDNA for subsequent quantitative assays. Quantitative real-time PCR (qPCR) analysis was performed with the SYBR Green Master Mix (KAPA) using the ABI PRISM 7900 sequence detection system. […] Samples were multiplexed and sequenced single read 76 bp (HiSeq 2000, Illumina). […]

LIF signaling = LIF signaling activity in hESCs (GP130, phosphorylated STAT3, STAT3 responsive genes, NANOG)
Procedure: For expression analysis, total RNA was extracted using the TRIzol reagent (Invitrogen) with chloroform and precipitated with isopropanol. The precipitated RNA was centrifuged at 13000 rpm at 4° C. for 10 min. The RNA pellet was washed with 70% ethanol and subsequently reconstituted with DEPC-treated water (AMBION). DNA contaminants were digested with DNASE I (Ambion) at 37° C. for 30 min. The DNASE I enzyme is heat inactivated at 70° C. for 10 min. RNA concentration was determined with the NanoDrop 2000 (Thermo Scientific). 500 ng of RNA was used for each reverse transcription reaction using the SuperScript II Kit (Invitrogen) to produce the cDNA for subsequent quantitative assays. Quantitative real-time PCR (qPCR) analysis was performed with the SYBR Green Master Mix (KAPA) using the ABI PRISM 7900 sequence detection system. For RNA-Seq library preparation, the total RNA was further purified by column (Purelink RNA Mini kit, Ambion). […] Samples were multiplexed and sequenced single read 76 bp (HiSeq 2000, Illumina).
hESCs were lysed with a lysis buffer (50 mM Tris-HCl, pH 8.0, 150 mM NaCl, 10 μM ZnCl, 0.5% Nonidet P-40, 5% glycerol) supplemented with protease inhibitor cocktail (Merck). Protein concentration was measured with a Bradford assay kit (Bio-Rad). […] After washing with PBST, signals were detected using the Western Blotting Luminol Reagents (Santa Cruz).

Row | Compound | Gene expression levels of pluripotency markers NANOG and POU5F1 (hESCs) | Expression of NANOG and POU5F1 (hESCs) | also measured
1 | O=C1Nc2cc(Br)ccc2/C1=C1/Nc2ccccc2/C1=N\O [BIO, 6-bromoindirubin-3′-oxime] | downregulation | downregulated | Expression level of lineage markers (hESCs): stronger upregulation of T and GATA6
2 | Cc1cccc(-c2[nH]ncc2-c2ccc3ncccc3n2)n1 [RepSOX] | downregulation | – | –
3 | CCN(CC)CCCCNc1ncc2cc(-c3cc(OC)cc(OC)c3)c(NC(=O)NC(C)(C)C)nc2n1 [PD173074] | – | – | Pluripotency markers NANOG, OCT4 and TRA-1-60 in 3iL hESCs (3iL hESCs): loss of pluripotency markers
4 | LIF: leukemia inhibitory factor, human recombinant | – | – | NANOG expression levels (LIF signaling; increasing amount of LIF under 3i treatment, 5 days, FIG. 4A): increased with the addition of LIF in a dosage dependent manner; STAT3 phosphorylation (LIF signaling; whole cell extracts, Western blot, FIG. 3H): weakly activates
5 | Cc1cccc(-c2nn(C(=S)Nc3ccccc3)cc2-c2ccnc3ccccc23)n1 [A83-01] | downregulation | – | Pluripotency markers NANOG, OCT4 and TRA-1-60 in 3iL hESCs (3iL hESCs): loss of pluripotency markers
6 | c1cc(-c2cnn3cc(-c4ccc(OCCN5CCCCC5)cc4)cnc23)ccn1 [DOR, 6-[4-(2-Piperidin-1-ylethoxy)phenyl]-3-pyridin-4-ylpyrazolo[1,5-a]pyrimidine] | – | remains in a comparable range | –
7 | O=C(NOC[C@H](O)CO)c1ccc(F)c(F)c1Nc1ccc(I)cc1F [PD03] | – | remains in a comparable range | Expression level of lineage markers (hESCs): increase in the PAX6 transcript
